Where two headings read alike, the source gives them in different places.
How the values were obtained:
[1] = target: T1, PDE10 (Homo sapiens, UniProt O76083, E580G); experiment: PDE10 inhibition by isozyme-specific PDE inhibitors, cAMP as substrate; type: biochemical
T1 construct: The entire open reading frame of the PDE10 cDNA (clone FB94a) was placed into a yeast ADH vector; made in house; host or cells: Saccharomyces cerevisiae strain BJ2-54 (no endogenous PDE activity); 100,000 x g supernatant of the lysate, not purified
T1 sequence (O76083 1-466 isoform O76083-3 E453G): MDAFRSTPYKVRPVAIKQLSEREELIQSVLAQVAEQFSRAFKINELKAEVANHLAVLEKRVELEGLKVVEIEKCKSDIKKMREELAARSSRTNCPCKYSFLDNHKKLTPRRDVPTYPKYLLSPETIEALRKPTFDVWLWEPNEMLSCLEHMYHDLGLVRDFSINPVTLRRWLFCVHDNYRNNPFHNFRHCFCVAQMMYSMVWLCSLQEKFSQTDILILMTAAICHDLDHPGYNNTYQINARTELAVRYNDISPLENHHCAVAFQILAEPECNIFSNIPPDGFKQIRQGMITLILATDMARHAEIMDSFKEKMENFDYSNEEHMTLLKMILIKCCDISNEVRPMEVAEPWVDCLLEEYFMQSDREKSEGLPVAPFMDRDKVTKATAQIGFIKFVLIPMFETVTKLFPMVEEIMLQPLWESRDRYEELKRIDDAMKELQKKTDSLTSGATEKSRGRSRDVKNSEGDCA
Experimental: The entire open reading frame of the PDE10 cDNA (clone FB94a) was placed into a yeast ADH vector including the alcohol dehydrogenase promoter. The construct was built in two steps.
Following transformation into BJ2-54, a yeast strain lacking endogenous PDE activity, a colony was selected, streaked out on SC-leu plates and a single colony carrying the PDE10 construct was chosen for further characterization. Following overnight growth in SC-leu media the culture was diluted 1:250 in fresh SC-leu and grown overnight at 30° C. until it reached a density of 10^7 cells/ml. The cells were collected by centrifugation, washed once with YEP 3% glycerol media, resuspended in YEP containing 3% glycerol, and grown at 30° C. for another 24 hours. The cells were harvested by centrifugation, washed with water, and frozen at −70° C. until use. Prior to use, an aliquot of the yeast extract was analyzed by SDS PAGE. A protein specific to yeast carrying the PDE10 expression construct that migrated on the SDS PAGE gels with the expected mobility (55.5 kDa) was observed by Coomassie blue staining.
Yeast cells (1×10^10) were thawed with 200 μg/ml each of pepstatin A, leupeptin, and aprotinin 1 mM DTT, and 20 μg/ml calpain inhibitors (I and II). Two hundred μl of glass beads (0.5 mm, acid washed) were added, and the mixture was vortexed for eight cycles of 30 seconds each. Samples were cooled for 4.5 minutes at 4° C. between cycles. After lysis, 0.8 ml lysis buffer was added, the lysate separated from the beads, and the lysate centrifuged for 30 minutes at 100,000×g in a Beckman TL-100 tabletop centrifuge. The supernatant was aliquoted, frozen in dry ice/ethanol, and stored at −70° C.
Kinetic assays were performed on a BIOMEK® 1000 programmable robotic station (Beckman Instruments). […] The highest nucleotide concentration contained 1 to 1.5 million Cerenkov counts of ^32P-labeled substrate per assay. […] The enzyme dilution buffer consisted of 25 mM Tris-HCl pH 8.9, 5 μM ZnSO4 5 mM MgCl2, 0.1 mM DTT, 100 mM NaCl and 0.1 mg/ml BSA (Calbiochem; fatty acid free). Activity at each substrate concentration was derived from a linear fit of successive four-fold enzyme dilutions across the plate.
Assays were performed at 30° C. for 15 minutes. After 12 minutes, 5 μl snake venom from Crotalus atrox (15 mg/ml protein) was added to each reaction. Assays were stopped by addition 200 μl of charcoal suspension (25 mg/ml activated charcoal in 0.1 M monobasic potassium phosphate). The plate was centrifuged at 2600 rpm, and 200 μl of each supernatant was transferred into Microbeta® counting plates and counted on a WALLAC Microbeta® by Cerenkov counting. Data were evaluated with a predesigned Microsoft Excel® Spreadsheet, and the kinetic parameters were fitted to a Michaelis-Menton model using the program Table Curve® from Jandel Scientific.

[2] = system: non-specific; details: Coste and Grodin 1995, read-out: Target Family IC50; cited from earlier work
[3] = target: PDE2 (Homo sapiens, UniProt O00408); details: target family PDE2; Podzuweit et al. 1995; cited from earlier work
Chain of PDE2 (O00408 whole entry): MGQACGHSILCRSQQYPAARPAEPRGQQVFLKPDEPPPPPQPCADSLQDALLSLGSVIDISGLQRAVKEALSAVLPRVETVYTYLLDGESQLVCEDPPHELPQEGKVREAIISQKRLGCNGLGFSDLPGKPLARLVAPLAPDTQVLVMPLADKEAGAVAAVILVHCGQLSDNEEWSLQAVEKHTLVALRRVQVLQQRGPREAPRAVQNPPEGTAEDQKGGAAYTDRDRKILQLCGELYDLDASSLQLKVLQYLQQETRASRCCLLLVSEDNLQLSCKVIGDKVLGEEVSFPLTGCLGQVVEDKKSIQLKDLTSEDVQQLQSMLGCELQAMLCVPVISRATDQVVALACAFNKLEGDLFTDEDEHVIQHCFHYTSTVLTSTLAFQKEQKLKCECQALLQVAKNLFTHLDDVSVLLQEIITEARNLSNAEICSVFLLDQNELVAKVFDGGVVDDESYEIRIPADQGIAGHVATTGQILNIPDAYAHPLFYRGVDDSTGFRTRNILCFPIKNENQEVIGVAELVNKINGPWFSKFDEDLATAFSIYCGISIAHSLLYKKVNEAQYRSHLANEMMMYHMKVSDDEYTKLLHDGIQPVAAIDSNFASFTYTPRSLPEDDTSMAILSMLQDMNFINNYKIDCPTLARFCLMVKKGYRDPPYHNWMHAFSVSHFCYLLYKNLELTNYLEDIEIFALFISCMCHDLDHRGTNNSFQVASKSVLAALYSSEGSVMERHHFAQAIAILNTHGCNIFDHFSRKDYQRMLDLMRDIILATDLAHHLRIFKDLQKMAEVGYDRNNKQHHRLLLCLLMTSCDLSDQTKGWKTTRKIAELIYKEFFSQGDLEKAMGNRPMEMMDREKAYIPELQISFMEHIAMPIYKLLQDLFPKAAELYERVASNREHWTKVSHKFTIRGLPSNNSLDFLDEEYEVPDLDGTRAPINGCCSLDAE

[4] = system: PDE3; details: target family PDE3; Manganiello et al. 1990; cited from earlier work
[5] = target: PDE5 (Homo sapiens, UniProt O76074); details: target family PDE5; Coste and Grodin 1995; cited from earlier work
[6] = system: PDE4; details: target family PDE4; Bolger et al. 1993; cited from earlier work
[7] = target: T1, PDE10; experiment: Kinetic assays of recombinant PDE10 yeast extract (cAMP and cGMP hydrolysis); type: biochemical
[8] = cAMP as substrate, recombinant PDE10 (clone FB94a) yeast extract

Question: For isobutyl methyl xanthine [IBMX], which IC50 [1, 8] is on record?
Answer: 59 µM

Question: And the IC50 [2]?
Answer: 2 to 20 µM

Question: With `CCCCCCC(C(C)O)n1cnc2c(N)ncnc21` (stereo not drawn) [EHNA, erythro-9-(2-hydroxy-3-nonyl)adenine] as the compound, how does the IC50 [1] read?
Answer: 477 µM

Question: What about the IC50 [3] of the same compound?
Answer: 800 nM

Question: With `CN(C(=O)CCCOc1ccc2[nH]c(=O)ccc2c1)C1CCCCC1` [Cilostamide] as the compound, how does the IC50 [1] read?
Answer: 100 µM

Question: What about the IC50 [4] of the same compound?
Answer: 40 to 900 nM

Question: Which results are given for `CCCOc1ccc(NS(C)(=O)=O)cc1-c1nc2c(c(C)nn2C)c(=O)[nH]1` [DMPPO]?
Answer: IC50 [1, 8]: 9 µM; IC50 [5]: 3 nM

Question: With `COc1ccc(C2CNC(=O)C2)cc1OC1CCCC1` (stereo not drawn) [Rolipram, rolipram] as the compound, how does the IC50 [1] read?
Answer: 529 µM

Question: What does the source list for `Nc1nc2c(ncn2[C@@H]2O[C@@H]3COP(=O)(O)O[C@H]3[C@H]2O)c(=O)[nH]1` [cGMP]?
Answer: hydrolytic activity in the extract ([7]; PDE10 yeast extract): 0.035 (±0.01) μmol/min/mg; Km ([7]; substrate of PDE10, 30° C., Michaelis-Menton fit): 5 nM
